In ChEMBL document CHEMBL3507680, “University of Dundee, Gates Library screen for HepG2 cell viability”:

Assay: Human HepG2 cell viability assay in 384 well format
Type: toxicity, cell-based
Parameters: dose 125 nL, time 70.5 hour; concentration not given beside the values
Settings: HepG2 cells, read-out: Inhibition

SMILES | cytotoxicity at 70.5 h
O=C(c1ccco1)N1CC2(CCNCC2)c2cc(Cl)ccc21 | 27.2%
Cc1ncc(CN)c(-c2cn(C)c3ccccc23)n1 | -7.92%
COC(=O)c1cc(OCC2CCC2)cc(C(=O)N[C@H]2CCCC[C@@H]2O)c1 | -8.47%
COc1ccc2[nH]nc(CN3CCN(Cc4cccc(F)c4)CC3)c2c1 | 4.06%
CO[C@@H]1CN(c2ccccc2)S(=O)(=O)[C@@]12CCN(Cc1cncs1)C2 | -2.7%
Cc1nc(Nc2cnccn2)cc(C2CCCN2)n1 (centres undefined) | 19.5%
Cc1cncc(C2CCCN(C(=O)c3scnc3C)C2)n1 (centres undefined) | -3.5%
CC1(C)[C@H]2CC=C(CN3CCCn4nc(C(=O)O)cc4C3)[C@@H]1C2 | -19.9%
Oc1cccc(CN2CCN(c3nccc(CCC(F)(F)F)n3)CC2)c1 | -3.66%
Cc1nccc(N2CCCC(C)(C(=O)NC3CCCC3)C2)n1 (centres undefined) | -15.1%
CN(C)CC1(O)CCCN(C(=O)Cn2ccc3ccccc32)CC1 (centres undefined) | 29.7%
O=C(CCS(=O)(=O)C1CCCC1)NCCc1ccc2c(c1)OCCO2 | -2.36%
COc1cc(C)c(C(C)NC(=O)c2cccnc2N(C)C)cc1OC (centres undefined) | -6.36%
CCN(Cc1nc2c(cnn2C)c(=O)[nH]1)c1cccc(C)c1 | 4.24%
COc1c(CNCCC(=O)NC2CCCC2)c(C(C)C)nn1C | 0.44%
CC(C)Nc1ccc2c(c1)C1(CCOCC1)C(=O)N2c1ccsc1 | -7.35%
Cc1ccc(C(=O)N2CCC3(CCC(=O)N(CC(N)=O)C3)CC2)cc1 | -8.05%
O=C(NC[C@@H]1CCCO1)c1cccnc1N1CCCC1c1ccccc1 (some centres undefined) | -5.49%
O=C(O)C1(n2ccc(-c3ccco3)n2)CCN(Cc2cccs2)CC1 | 17.7%
O=C(c1cccc(S(=O)(=O)NCCCc2ccco2)c1)N1CCOCC1 | 3.78%
FC(F)(F)c1[nH]nc2c1CN(Cc1ccccc1)CC2 | -11.1%
CCn1cnnc1CCNCc1c[nH]nc1-c1ccc(F)cc1 | 5.79%
O=C1COc2cc(C(=O)NS(=O)(=O)c3ccc(F)cc3)ccc2N1 | -17.6%
CCN(CC)S(=O)(=O)N1CCCC(c2cccc(C(=O)O)c2)C1 (centres undefined) | -6.99%
Cc1cccc(CN(Cc2ccccn2)Cc2ncc(C(C)(C)C)o2)c1 | -11.5%
O=C(N[C@@H]1CC[C@@H](N2CCCC2)[C@@H]1O)c1cc2ccccc2[nH]1 | -5.76%
CCS(=O)(=O)N1CC[C@H]2CO[C@H](CN(C)C)[C@H]2C1 | 9.44%

SMILES | cytotoxicity at 70.5 h
Cc1noc(C)c1CCCNC(=O)Nc1cccc([S+](C)[O-])c1 (centres undefined) | -3.63%
NS(=O)(=O)c1cccc(CNc2nccc(C(F)(F)F)n2)c1 | -5.9%
CC(NCc1ccc(C(C)(C)C)cc1)c1ccc(S(C)(=O)=O)cc1 (centres undefined) | -8.09%
CCC(CNC(=O)CCn1cncn1)N1CCc2ccccc2C1 (centres undefined) | 7.08%
COc1cc2c(cc1CNC(=O)Cc1cc(C)on1)OC(C)C2 (centres undefined) | -8.66%
CCS(=O)(=O)N1CCC2(CC1)CN(Cc1ccccn1)C(=O)CO2 | -11.1%
Cc1cnn(CC2CCCN2C(=O)c2cn(C)c3ccccc23)c1 (centres undefined) | -9.04%
CCCN1CCCn2nc(CNC(=O)CCOC)cc2C1 | -4.33%
CCOC(=O)[C@]12CCCN(Cc3nccs3)C[C@H]1CN(C(C)C)C2 | -3.32%
CCc1nc2c(c(NC3CCC3)n1)CCN(C(=O)CO)CC2 | 0.47%
OC1CCN(c2ccnc(NCCc3ccccc3Cl)n2)C1 (centres undefined) | -3.46%
Cc1nnc(CN2CCOC(c3ccc(Cl)cc3)C2)o1 (centres undefined) | 0.631%
COc1cc(C)ccc1OCCC(=O)N1CCCC(n2cncn2)C1 (centres undefined) | -9.18%
COc1ccc(OC)c(Sc2ncccc2C(=O)NCC2CC2)c1 | 24.9%
OCCN(CCO)Cc1ccc(Br)c2cccnc12 | -1.86%
CC(C)c1cc(C(=O)N2CCOC3(CCNCC3)C2)no1 | -5.65%
CN1CCC(Oc2ccc(NC(=O)c3ccccc3Br)cc2)CC1 | -7.15%
Cc1nc(C)n(CC2CCCN(Cc3nc(-c4ccco4)no3)C2)n1 (centres undefined) | -3.87%
CN(Cc1cccnc1)c1nccc(N2CCN[C@H]3CS(=O)(=O)C[C@H]32)n1 | -3.96%
CN(C)CCn1ccc2cc(NC(=O)NCc3ccon3)ccc21 | -8.32%
NCc1cnn(-c2ccccc2C(=O)NCc2ccccn2)c1 | -5.83%
Cc1cccc(CN2C(=O)CO[C@@H]3CN(CCO)C[C@H]32)c1 | -3.53%
CN(Cc1cccnc1)C1CCCN(Cc2noc(C3CC3)n2)C1 (centres undefined) | 24.6%
CC(NCc1ccccn1)c1ccc(N2CCN(C)CC2)c(F)c1 (centres undefined) | 11.1%
O=C(c1ccsc1)N1CCc2c(CNc3ncccn3)n[nH]c2C1 | 3.39%
C=C(C)COc1cccc(CN(C)C(C)c2nccs2)c1 (centres undefined) | -4%
c1coc(CN2CCO[C@H]3[C@@H](OCC4CC4)CC[C@@H]32)c1 | -7.18%

SMILES | cytotoxicity at 70.5 h
CN(CC(=O)N(C)C)Cc1ccc(C#N)cc1F | 11.5%
O=S(=O)(C1CC1)N1CCC2(COCc3cnc(NCC4CC4)nc32)C1 (centres undefined) | -6.1%
Cn1cc(C2CCCN2CCCn2c(=O)oc3ccccc32)cn1 (centres undefined) | 12.6%
CNc1ncc(-c2ccnn2C2CCN(C(C)=O)CC2)cn1 | -7.63%
CCNC(=O)N[C@H]1C[C@@H](Cc2cc(CN3CCCCC3)on2)C1(C)C | -4.13%
CSCC(=O)N1CCCC(CCC(=O)N(C)CCc2ccccn2)C1 (centres undefined) | 9.62%
O=C(NCC1(Sc2ccccc2)CC1)c1ccc(=O)[nH]n1 | -6.34%
COc1ccc(F)c(-c2ncccc2NC(=O)C(C)C)c1 | 6.17%
CCc1nc(CN2CCCC(NCc3cc(C)no3)C2)no1 (centres undefined) | -8.45%
Cn1ccnc1CC1CCCN(Cc2noc(C3CC3)n2)C1 (centres undefined) | -9.18%
O=S(=O)(c1cccs1)N1Cc2nc(CN3CCCC3)oc2C1 | -6.48%
CC(C)NC(=O)CCNC(=O)c1cc(F)ccc1NS(C)(=O)=O | 15.1%
COc1ccc(OC)c2c(C)cc(N(C)CCO)nc12 | 16.9%
CC1(C(=O)NC2CCCC2)CCCN(c2ncccn2)C1 (centres undefined) | 6.47%
Cc1c[nH]nc1C1CCN(S(=O)(=O)N(C)C)CC1 | 0.689%
O=C([C@@H]1CCS(=O)(=O)[C@@H]2CN(c3ncccn3)C[C@@H]21)N1CCOCC1 | -1.98%
Cc1ccc(NC(=O)CNc2cccc3c2CCCC3)c(Br)c1 | -8.9%
Cc1cc(C)nc(Nc2cccc(C3CCCN(C)C3)n2)n1 (centres undefined) | 0.625%
COCC[C@]1(O)CCN(C(=O)C2CCN(C3CCCC3)CC2)C[C@H]1C | -5.71%
Cc1nc2cc(-c3nccn3C)nn2c(N2CCCC(O)C2)c1C (centres undefined) | 0.494%
Cc1nc(C)c(C(=O)NCCNC(=O)Cc2cccc(F)c2)s1 | -9.52%
Cc1cccc(CNCc2c(C)nn(C)c2N2CCOCC2)n1 | -2.64%
O=c1c(-c2ccnc(N3CCC[C@H]3CO)n2)cnc2sccn12 | -1.75%
CN(Cc1ccccc1F)C(=O)c1cc(Cl)c[nH]1 | -2.89%
O=C1CO[C@H]2CN(Cc3cccc4[nH]ccc34)C[C@@H]2N1C1CCOCC1 | 5.48%
